Here are results for three compounds from patent EP1282414B1, “FELBAMATE DERIVED COMPOUNDS FOR TREATING NEUROPATHIC PAIN” (University of Virginia Patent Foundation, priority 2000, dated 2001).

Data set [1] in a line: LC/MS quantification of felbamate and metabolites in patient urine. The class given is in vivo, patients. On the procedure:
Preparation of Patient Urine Samples. Urine samples were obtained from patient volunteers undergoing felbamate therapy for control of epileptic seizures and under the care of physicians at either the University of Virginia (Charlottesville, Virginia) or the EpiCare Center (Memphis, Tennessee). Urine samples were diluted four fold with distilled water (this was done prior to overnight shipment for samples requiring shipping) and placed in an orbital shaking water bath for ∼ 20 min at 37 °C to insure that all of the analytes were in solution. 500 µL of this diluted sample were removed and added to 100 µL of a mixture of the four deuterated internal standards. […] After mixing, 200 µL were removed and added to 20 µL of 20% H0Ac. This acidified sample was then applied to a preconditioned Waters "Oasis" solid phase extraction cartridge (Waters Corp., Woburn, MA). The cartridge was washed with 2 mL 0.1% HOAc followed by 3 mL 10% CH3CN/90% water (0.1 %) H0Ac. The analytes and internal standards were then eluted with 3 mL 30% CH3CN:70% (0.1 %) HOAc. This fraction was then analyzed by LC/MS without further manipulation.
LC/MS Analysis of Urine Samples for Metabolite Quantification. LC/MS analysis was performed using a Waters 2690 HPLC equipped with an autosampler and a Waters 486 tunable absorbance detector. This LC system was interfaced to a Finnigan MAT LCQ ion trap mass spectrometer. A 10 µL injection of the fraction from solid phase extraction was applied to a Waters Symmetry C8 reversed phase column (33% CH3CN:67% (0.1%) H0Ac, 2.1 mm x 150 mm, 0.2 mL/min). The post-column flow was directed through a Waters 486 tunable absorbance detector (10 µL flow cell, λ = 214 nm) which was used for qualitative assessment of the sample and not for quantitation. The flow was then directed to the electrospray ionization source of the LCQ.
The mass spectrometer was programmed to collect data in full scan mode from 190 - 320 m/z and was tuned to maximize the signal from the analytes under the HPLC conditions. The values for the electrospray parameters were as follows: heated capillary temperature = 180°C; spray voltage = 5.6 kV; capillary voltage = 20 V; sheath gas (nitrogen) flow rate = 70; auxillary gas (helium) flow rate = 20. The automatic gain control (AGC) was on with a target ion count of 7 x 10^7 ions and a maximum ion inject time of 150 ms. […]
Quantification was achieved by integration of the peaks from the mass chromatogram for each analyte using software (Navigator 1.1) provided with the LCQ. The area (expressed as counts x seconds) of the peak for each metabolite was compared to the area for its corresponding deuterated internal standard. As the absolute amount of internal standard added per mL of urine was known, the absolute amount of analyte per mL of urine could be determined.

The conditions of data set [2]: patients on felbamate monotherapy; cited from earlier work.
The subject of data set [3] is painful peripheral neuropathy. The following applies: rat model of painful peripheral neuropathy; cited from earlier work.
Data set [4] in a line: Stability of oxazinane-dione at relevant pH. It counts as physicochemical. The text has this:
It is anticipated, therefore, that the oxazinane-dione 9 is responsible for some aspects of felbamate's efficacy in vivo. As patients undergoing felbamate therapy for seizure control ingest large quantities of felbamate (grams per day), even a 1 - 2% conversion to a pharmacologically active metabolite could have significant effects. […] In light of the possibility that the oxazinane-dione 9 could be a metabolic precursor to the major human metabolite, acid carbamate 4, it may be formed in significant quantities (the acid carbamate was reported to represent ∼ 12% of a dose). […] Also included in this class are cyclic congeners 21 and 22, which may be formed from felbamate derivatives (see scheme II). Also included is 20, which may be an unknown metabolite of felbamate 1 and could be produced from felbamate derivative 12 by the cytochrome P450 metabolism.

Setting [5] is: urine of patients on felbamate therapy, 34 samples.

Structures are written as SMILES.

`CC(=O)N[C@@H](CSCC(CO)c1ccccc1)C(=O)O` (stereo partly shown) [Nac-alcohol]: in data set [1] (setting [5]), the “average ratio of Nac-alcohol to Nac-acid” value is 6.4 and the “ratio of Nac-alcohol to Nac-acid (range over patients)” value is reported as 2- 14.

Take `NC(=O)OCC(COC(N)=O)c1ccccc1` [felbamate, 2-phenyl-1,3-propanediol dicarbamate]: the Weight loss in data set [2] is recorded as 4-5%. Further, the “effect on measures of pain (in words)” value in data set [3] is listed as “significant reductions in all measures of pain”. Moreover, the entries for the “amount of felbamate excreted per mL of urine” value in data set [1] (patient with total daily dose of 3.6 grams of felbamate (lowest of range)) and in data set [1] (patient with total daily dose of 6.0 grams of felbamate (highest of range)) were 819 ± 8.5 nmol/mL and 10,064 ± 515 nMoles/mL, respectively.

Turning to `O=C1NC(=O)C(c2ccccc2)CO1` (stereo not shown) [oxazinane-dione 9], in data set [4], the “stability at relevant pH (in words)” value is reported as “unstable”.
